Measurements published in patent US8846946B2, “Germinal alkoxy/alkylspirocyclic substituted tetramate derivatives” (Bayer CropScience AG, priority 2008, dated 2014).

Legend:
Assay type in all cases: in vivo
Boophilus microplus = Boophilus microplus test (BOOPMI injection); conditions: application rate of 20 μg/animal, injection into the abdomen
Protocol: (§1) • Solvent: dimethyl sulphoxide
(§2) To prepare a suitable active compound preparation, 1 part by weight of active compound is mixed with the stated amount of solvent, and the concentrate is diluted with water to the desired concentration.
The solution of active compound is injected into the abdomen (Boophilus microplus), and the animals are transferred into dishes and kept in a climatised room. The activity is assessed by […] of fertile eggs.
After the desired period of time, the effect in % is determined. 100% means that none of the ticks has laid any fertile eggs.

Lucilia cuprina larvae = test: Lucillia cuprina test (LUCICU); conditions: application rate of 100 ppm, treated horse meat
Protocol: as §1, §2
Vessels containing horse meat treated with the active compound preparation of the desired concentration are populated with Lucilia cuprina larvae.
After the desired period of time, the kill in % is determined. 100% means that all of the larvae have been killed; 0% means that none of the larvae have been killed.

Summer wheat = test: Container trials with cereal in a greenhouse, use of safeners (mefenpyr 1 day prior to herbicide application); conditions: 28 days after application, without safener
Protocol: Seeds of monocotyledonous and dicotyledonous weed and crop plants are placed in sandy loam in wood fibre pots, covered with soil and cultivated in a greenhouse under good growth conditions. 2 to 3 weeks after sowing, the test plants are treated at the one-leaf stage. The test compounds, formulated as wettable powders (WP), are then, with a water application rate of 600 l/ha (converted), with 0.2% of wetting agent added, sprayed at various dosages onto the green parts of the plants. After the test plants have […], the activity of the preparations is rated visually in comparison to untreated controls (herbicidal activity in percent: 100% activity=the plants have died, 0% activity=like control plants).
If it is additionally to be tested as to whether safeners can improve the plant compatibility of test substances in the case of crop plants, the following options are used for applying the safener: • seeds of the crop plants are, before sowing, dressed with the safener substance (the amount of safener stated in percent, based on the weight of the seed) • before application of the test substances, the crop plants are sprayed with the safener at a certain application rate per hectare (usually 1 day before the application of the test substances) • the safener is applied together with the test substance as a tank mix (the amount of safener stated in g/ha or as a ratio, based on the herbicide). Container Trials with Cereal in a Greenhouse Mefenpyr 1 Day Prior to Herbicide Application

Compound	efficacy (no fertile eggs laid) (Boophilus microplus)	kill in % (larvae killed) (Lucilia cuprina larvae)	Summer wheat observed (%) (Summer wheat; application rate 12.5 g a.i./ha)	Summer wheat observed (%) (Summer wheat; application rate 25 g a.i./ha)	Summer wheat observed (%) (Summer wheat; application rate 50 g a.i./ha)
COC1(C)CCC2(CC1)NC(=O)C(c1c(C)cc(Cl)cc1C)=C2O (mixture of isomers) [I-a-3]	good efficacy	≥ 80%			
CCc1cc(C)cc(C)c1C1=C(O)C2(CCC(CC)(OC)CC2)NC1=O (mixture of isomers) [I-a-64]			20%	60%	70%
CCOC(=O)OC1=C(c2c(C)cc(C)cc2C)C(=O)NC12CCC(C)(OC)CC2 (stereo not drawn) [I-c-3]	good efficacy				
